From ChEMBL document CHEMBL1158103, “Theopapuamide, a cyclic depsipeptide from a Papua New Guinea lithistid sponge Theonella swinhoei” (J Nat Prod, 2006)

Legend:
[1] = Cytotoxicity against human CEM-TART cells after 72 hrs by MTT assay; type: cell-based
[2] = Cytotoxicity against human HCT 116 cells after 48 hrs by MTT assay; type: functional, cell-based; details: HCT-116, 48 h

CCC(C)CC(C)C(O)C(C)C(=O)N[C@H](CN)C(=O)NC(C(O)C(O)C(=O)N[C@H](C(=O)N[C@H]1C(=O)N[C@H]([C@@H](C)O)C(=O)N[C@H](CCCN)C(=O)N[C@@H](CC(C)C)C(=O)N(C)[C@@H](CCC(N)=O)C(=O)N[C@@H]([C@@H](OC)C(N)=O)C(=O)N[C@H](CC(N)=O)C(=O)N(C)[C@@H](CC(C)C)C(=O)O[C@@H]1C)[C@H](C)C(C)C(N)=O)C(C)(C)O (some centres not stated) [THEOPAPUAMIDE]
EC50 [1]: 500 nM
EC50 [2]: 900 nM
